According to the Deep4Chem optical property database:

Assay: solvent given as SMILES
[1] = in O=P(c1ccccc1)(c1ccccc1)c1ccccc1Oc1ccccc1P(=O)(c1ccccc1)c1ccccc1

CCCCCCCCC1(CCCCCCCC)c2cc(-c3ccc([N+](=O)[O-])cc3)ccc2-c2ccc(-c3ccc([N+](=O)[O-])cc3)cc21
fluorescence lifetime (in CN(C)C=O): 1.92 ns | fluorescence lifetime (in CS(C)=O): 1.82 ns

CC(C)c1cc(C(C)C)c(B2c3cc(N4c5ccccc5C(C)(C)c5ccccc54)ccc3N(c3ccccc3)c3ccc(N4c5ccccc5C(C)(C)c5ccccc54)cc32)c(C(C)C)c1
fluorescence lifetime (in c1cc(-c2cccc(-n3c4ccccc4c4ccccc43)c2)cc(-n2c3ccccc3c3ccccc32)c1): 17 ns

CC(C)(C)c1ccc2c(c1)c1cc(C(C)(C)C)ccc1n2-c1ccc(C#Cc2ccc3c4ccc(C#Cc5ccc(C=O)cc5)cc4n(-c4ccc(C(F)(F)F)cc4)c3c2)cc1
fluorescence lifetime (in ClCCl): 0.84 ns

COC(=O)c1[nH]c(-c2ccc([N+](=O)[O-])cc2)c2nnc3ccc(OC)cc3c12
fluorescence lifetime (in ClCCl): 2.44 ns

FC(F)(F)c1ccc(-c2ccc(-c3cc(-c4ccccn4)nc(-c4ccccn4)c3)cc2)cc1
fluorescence lifetime (in ClCCl): 1.48 ns

COc1ccc2c(c1)c1c(OC)c3ccccc3c(OC)c1n2C
fluorescence lifetime (in C1CCCCC1): 24.1 ns | fluorescence lifetime (in CC#N): 31 ns | fluorescence lifetime (in CO): 30.7 ns | fluorescence lifetime (in ClCCl): 27.1 ns

CCCCCCN1C(=O)c2cccc3c(-c4sc(-c5ccc6c7c(cccc57)C(=O)N(CCCCCC)C6=O)c5c4OCCO5)ccc(c23)C1=O
fluorescence lifetime (in ClC(Cl)Cl): 0.462 ns

CC(C)(C)N1C(=O)c2c(cc3ccc4cccc5ccc2c3c45)C1O (centres undefined)
fluorescence lifetime (in ClC(Cl)Cl): 4.93 ns

CN(C)c1ccc(C2=Cc3ccccc3P2(=O)c2ccccc2)cc1 (centres undefined)
fluorescence lifetime (in ClCCl): 6.1 ns

CC1=CC(C)=[N+]2C1=C(C)c1cccn1[B-]2(F)F
fluorescence lifetime (in CCCCCC): 6.1 ns | fluorescence lifetime (in CO): 6.31 ns | fluorescence lifetime (in ClCCl): 5.93 ns

c1ccc2c(c1)CCc1ccccc1N2c1c2ccccc2cc2ccccc12
fluorescence lifetime (in Cc1ccccc1): 41 ns

C(=C\c1ccc(N(c2ccc(/C=C/c3ccc(N(c4ccccc4)c4ccccc4)cc3)cc2)c2ccc(/C=C/c3ccc(/C=C/c4ccc(N(c5ccc(/C=C/c6ccc(N(c7ccccc7)c7ccccc7)cc6)cc5)c5ccc(/C=C/c6ccc(N(c7ccccc7)c7ccccc7)cc6)cc5)cc4)c4nsnc34)cc2)cc1)/c1ccc(N(c2ccccc2)c2ccccc2)cc1
fluorescence lifetime (in C1CCOC1): 1.83 ns | fluorescence lifetime (in CCOC(C)=O): 1.85 ns | fluorescence lifetime (in Cc1ccccc1): 3.61 ns | fluorescence lifetime (in ClC(Cl)Cl): 2.08 ns | fluorescence lifetime (in ClCCl): 1.86 ns

COC(=O)c1cc(=O)n(Cc2ccccc2)c2cc(-c3ccc(OC)cc3)sc12
fluorescence lifetime (in ClCCl): 2.06 ns

CCN(CC)/C(C)=N\c1ccc2c3c(cccc13)C(=O)c1ccccc1-2
fluorescence lifetime (in ClC(Cl)Cl): 8.07 ns

O=P1(c2ccccc2)c2ccccc2-c2sc3ccccc3c21 (centres undefined)
fluorescence lifetime (in ClCCl): 11.3 ns

Nc1cccc2c1-c1ccccc1C2=O
fluorescence lifetime (in C1CCCCC1): 3.2 ns | fluorescence lifetime (in CC#N): 4.2 ns | fluorescence lifetime (in c1ccccc1): 9.3 ns

FC(F)(F)c1ccc(-c2nnc(-c3cc(-n4c5ccccc5c5ccccc54)c(-n4c5ccccc5c5ccccc54)cc3-c3nnc(-c4ccc(C(F)(F)F)cc4)o3)o2)cc1
fluorescence lifetime (in Cc1ccccc1): 19.1 ns

Cc1cc(C)c(B(c2cc3c4c(c(B(c5c(C)cc(C)cc5C)c5c(C)cc(C)cc5C)cc5c4c2CCC5)CCC3)c2c(C)cc(C)cc2C)c(C)c1
fluorescence lifetime (in CCCCCC): 14.6 ns

CN(C)c1ccc(C2=Cc3ccc4ccccc4[n+]3[B-](F)(F)O2)cc1
fluorescence lifetime (in ClC(Cl)Cl): 2.8 ns

O=C(O)c1ccc2ccc3cccc4ccc1c2c34
fluorescence lifetime (in C1CCOC1): 10.6 ns | fluorescence lifetime (in CC#N): 9 ns | fluorescence lifetime (in CCCCCC): 8.68 ns | fluorescence lifetime (in CCO): 7.78 ns | fluorescence lifetime (in CN(C)C=O): 8.43 ns | fluorescence lifetime (in CO): 15.5 ns | fluorescence lifetime (in Cc1ccccc1): 7.14 ns | fluorescence lifetime (in ClCCl): 5.12 ns

Cc1cc(C)c2nc3[nH]c(=O)[nH]c(=O)c3nc2c1
fluorescence lifetime (in CC#N): 1.65 ns

N#Cc1cc(-n2c3ccccc3c3ccccc32)c(-n2c3ccccc3c3ccccc32)cc1C#N
fluorescence lifetime (in Cc1ccccc1): 28.5 ns

COc1cc2cc(-c3ccc(C(=O)OCOC(C)=O)cc3C(=O)OCOC(C)=O)oc2cc1N1CCOCCOCCN(c2cc3oc(-c4ccc(C(=O)OCOC(C)=O)cc4C(=O)OCOC(C)=O)cc3cc2OC)CCOCCOCC1
fluorescence lifetime (in O): 0.52 ns

O=P1(c2ccccc2)C(c2ccc(C(F)(F)F)cc2)=Cc2cc3ccccc3cc21 (centres undefined)
fluorescence lifetime (in ClCCl): 3 ns

Cc1nc2c(ccc3ccccc32)oc1=O
fluorescence lifetime (in c1ccccc1): 1.5 ns

N#Cc1cc2ccccc2[nH]1
fluorescence lifetime (in C1CCOC1): 2.9 ns | fluorescence lifetime (in C1COCCO1): 2.9 ns | fluorescence lifetime (in CC#N): 0.9 ns | fluorescence lifetime (in CS(C)=O): 0.4 ns

COC(=O)[C@]12N=N[C@](C(=O)OC)(C3C4C5C4C5C31)C1C3C4C3C4C12 (some centres undefined)
fluorescence lifetime (in CC#N): 166 ns

CCN(CC)c1ccc2c(-c3ccccc3C(=O)O)c3c([o+]c2c1)/C(=C/c1ccc(N(C)C)cc1)CCC3
fluorescence lifetime (in ClCCl): 0.25 ns

O=S(=O)([O-])c1cc(S(=O)(=O)Cl)ccc1C1=c2cc3c4c(c2Oc2c1cc1c5c2CCCN5CCC1)CCC[N+]=4CCC3
fluorescence lifetime (in O): 4.2 ns

CCC1(CC)c2cc(N(c3ccccc3)c3ccccc3)ccc2-c2c1c1c(c3c2C(CC)(CC)c2cc(N(c4ccccc4)c4ccccc4)ccc2-3)C(CC)(CC)c2cc(N(c3ccccc3)c3ccccc3)ccc2-1
fluorescence lifetime (in C1CCOC1): 2.1 ns

Cc1cc(-c2ccc(-c3ccccc3)cc2)nc(-c2ccc(-n3c4ccccc4c4ccccc43)cc2)n1
fluorescence lifetime (in C1CCOC1): 3.36 ns | fluorescence lifetime (in CN(C)C=O): 12.2 ns | fluorescence lifetime (in Cc1ccccc1): 1.15 ns | fluorescence lifetime (in ClC(Cl)Cl): 3.19 ns

COC(=O)/C(C#N)=c1\s/c(=c2/s/c(=C(/C#N)C(=O)OC)c3cc(-c4ccc(C(F)(F)F)cc4)sc23)c2sc(-c3ccc(C(F)(F)F)cc3)cc12
fluorescence lifetime (in Cc1ccccc1): 2.32 ns

CCCCCCCCCCCCOc1cc2cc(N(C)C)ccc2cc1C#N
fluorescence lifetime (in CS(C)=O): 5.5 ns

c1ccc(N(c2ccccc2)c2cc3c4c(c2)N(c2ccccc2)c2cc5c(cc2B4c2ccccc2N3c2ccccc2)B2c3ccccc3N(c3ccccc3)c3cc(N(c4ccccc4)c4ccccc4)cc(c32)N5c2ccccc2)cc1
fluorescence lifetime (in Cc1ccccc1-c1cccc(Oc2cc3c4c(c2)Oc2cc(-c5ccccc5C)ccc2B4c2ccc(-c4ccccc4C)cc2O3)c1): 4.1 ns

CCCn1c2cccc3oc4cccc5oc6cccc1c6[c+](c45)c32
fluorescence lifetime (in CC#N): 23.2 ns | fluorescence lifetime (in CO): 20.7 ns | fluorescence lifetime (in ClCCl): 21.8 ns | fluorescence lifetime (in OCC(O)CO): 19.7 ns

O=C(c1ccc(N2c3ccccc3Sc3ccccc32)cc1)c1ccc2sc3ccccc3c2c1
fluorescence lifetime (in c1ccc2c(c1)c1ccccc1n2-c1ccc(-c2ccc(-n3c4ccccc4c4ccccc43)cc2)cc1): 37.4 ns

CCN(CC)c1ccc2c(c1)oc(=O)c1c(-c3ccccc3C(=O)O)c3ccc(=[N+](CC)CC)cc-3oc12
fluorescence lifetime (in CCO): 2.29 ns | fluorescence lifetime (in ClC(Cl)Cl): 4.16 ns | fluorescence lifetime (in O): 0.31 ns

O=C1c2ccccc2-c2ccccc21
fluorescence lifetime (in C1CCCCC1): 0.4 ns | fluorescence lifetime (in CC#N): 17.8 ns | fluorescence lifetime (in CCO): 1.9 ns | fluorescence lifetime (in c1ccccc1): 2.8 ns

CCCCCCCCCCCCOc1cc2c3c(ccc4c5c(OCCCCCCCCCCCC)cc6c7c(ccc(c1c34)c75)C(=O)N(C1CCCCC1)C6=O)C(=O)N(C1CCCCC1)C2=O
fluorescence lifetime (in ClC(Cl)Cl): 5.4 ns

c1ccc(/C(=C(\c2ccccc2)c2cc(-c3ccccc3)ccc2-c2ccc(-c3ccccc3)cc2)c2cc(-c3ccccc3)ccc2-c2ccc(-c3ccccc3)cc2)cc1
fluorescence lifetime (in C1CCOC1): 7.9 ns

CC1(C)C(=O)C=Cc2ccc(N3CCC3)cc21
fluorescence lifetime (in O): 3.83 ns

O=[N+]([O-])c1ccc(-c2nc3c(c4c2-c2ccccc2CC4)-c2ccccc2CC3)cc1
fluorescence lifetime (in CC#N): 2.05 ns | fluorescence lifetime (in CS(C)=O): 1.09 ns | fluorescence lifetime (in ClCCl): 1.13 ns

N#CC1=c2c3cccc4cccc(c43)n2[B-](F)(F)[n+]2ccccc21
fluorescence lifetime (in ClCCl): 8.7 ns

FC(F)(F)c1ccc(/C2=C3N=C(C(c4ccccc4)=C/3c3ccccc3)/C(c3ccc(C(F)(F)F)cc3)=c3\[nH]/c(c(-c4ccccc4)c3-c3ccccc3)=C(/c3ccc(C(F)(F)F)cc3)C3=N/C(=C(/c4ccc(C(F)(F)F)cc4)c4[nH]c2c(-c2ccccc2)c4-c2ccccc2)C(c2ccccc2)=C3c2ccccc2)cc1
fluorescence lifetime (in ClCCl): 0.423 ns

Cc1cc(C)c(B(c2c(C)cc(C)cc2C)c2cc3cc(N(C)C)c4ccccc4c3c3c2ccc2ccccc23)c(C)c1
fluorescence lifetime (in C1CCCCC1): 7 ns

CCOC(=O)CCCCCn1c2ccc(Cl)cc2c(=O)c2cc3c(cc21)c(=O)c1cc(Cl)ccc1n3CCCCCC(=O)OCC
fluorescence lifetime (in CO): 22.1 ns

O=[N+]([O-])c1ccc(C#Cc2ccc3ccccc3c2)cc1
fluorescence lifetime (in ClC(Cl)Cl): 0.25 ns | fluorescence lifetime (in ClCCl): 0.35 ns

COC(=O)c1nc(Cl)c(-c2ccccc2)o1
fluorescence lifetime (in C1CCCCC1): 0.67 ns

CC(C)c1cc(C(C)C)c(B2c3ccccc3Oc3cc(-n4c5ccccc5c5c6c(c7ccccc7n6-c6ccccc6)c6c(c7ccccc7n6-c6ccccc6)c54)ccc32)c(C(C)C)c1
fluorescence lifetime (in CC(C)c1cc(C(C)C)c(-c2ccc(-n3c4ccccc4n4c5ccccc5nc34)nc2)c(C(C)C)c1): 23.1 ns | fluorescence lifetime [1]: 24.7 ns

COc1cc2c(cc1-c1ccc(Cl)cc1)Cc1c3c(c4c(c1-2)-c1cc(OC)c(-c2ccc(Cl)cc2)cc1C4)C(=O)N(CCC(C)C)C3=O
fluorescence lifetime (in C1CCOC1): 3.05 ns

CCn1c2ccccc2c2cc(-c3cc(-c4ccc5c(c4)c4ccccc4n5CC)ncn3)ccc21
fluorescence lifetime (in C1CCOC1): 1.86 ns

Fc1c(F)c(-n2c3ccccc3c3ccccc32)c(F)c(F)c1-c1nnc(-c2ccccc2)o1
fluorescence lifetime (in Cc1ccccc1): 6.7 ns

COc1ccc(N(c2ccc(OC)cc2)c2ccc(-c3ccc(-c4ccc(-c5cccs5)c5nsnc45)s3)cc2)cc1
fluorescence lifetime (in ClC(Cl)Cl): 6.55 ns

C1C[C@H]2CC[C@@H]1N=N2
fluorescence lifetime (in CC#N): 434 ns

COc1cc(OC)c2cc(C#N)c(=N)oc2c1
fluorescence lifetime (in ClCCl): 2.4 ns

COc1ccc2cc(C#N)c(=N)oc2c1
fluorescence lifetime (in ClCCl): 2.5 ns

N#Cc1cnc(-c2c3ccccc3cc3ccccc23)nc1
fluorescence lifetime (in CCO): 1.3 ns | fluorescence lifetime (in ClCCl): 1.6 ns

c1cc2c3c(c1)ccc1[n+]3[B-]3(Oc4cccc5ccc6[n+](c45)[B-](O2)(O3)n2c-6cc3c4ccccc4c4ccccc4c32)n2c-1cc1c3ccccc3c3ccccc3c12
fluorescence lifetime (in ClCCl): 3.65 ns

O=C(O)c1c2ccccc2nc2ccccc12
fluorescence lifetime (in C1CCOC1): 1.1 ns | fluorescence lifetime (in C1COCCO1): 0.9 ns | fluorescence lifetime (in CC#N): 0.8 ns | fluorescence lifetime (in CCCCCO): 0.7 ns | fluorescence lifetime (in CCCCO): 0.8 ns | fluorescence lifetime (in CCCO): 0.7 ns | fluorescence lifetime (in CCO): 0.6 ns | fluorescence lifetime (in CO): 0.8 ns | fluorescence lifetime (in COCCOC): 1.5 ns | fluorescence lifetime (in ClC(Cl)Cl): 0.6 ns | fluorescence lifetime (in ClCCl): 0.9 ns | fluorescence lifetime (in OCCO): 0.8 ns

c1ccc(-c2nc(-c3ccccc3)nc(-c3ccc(-n4c5ccccc5c5cc6c(cc54)C4(c5ccccc5-c5ccccc54)c4ccccc4-6)cc3)n2)cc1
fluorescence lifetime [1]: 3.9 ns
